In US5834487A, “Inhibition of 26S and 20S proteasome by indanones” (CV Therapeutics, priority 1996, dated 1998) one finds IC50 data, which are given here for 56 molecules.

One may read the IC50 as the concentration needed to halve the response being measured.

Values after ≈ are worked out from the molar mass of the structure shown. Some results are limits rather than exact numbers.

The assay addresses T1, 20S catalytic subunit of the proteasome (multicatalytic proteinase complex) (Bos taurus, UniProt Q32KL2).
T1 construct: was purified to homogeneity from bovine brain according to published methods; from tissue; host or cells: bovine brain
Nature of the assay: 20S proteasome chymotryptic activity, fluorogenic peptide cleavage. Type of assay: biochemical, bovine. Particulars: 50 μM succinyl-leu-leu-val-tyr-7-amino-4-methyl coumarin, 15 minutes at 37° C, pH7.5. The procedure: Compounds of this invention prepared according to the method of Example 1 were tested as follows. The 20S catalytic subunit of the proteasome (also known as the multicatalytic proteinase complex) was purified to homogeneity from bovine brain according to published methods (Wilk S. and Orlowski, M, 40 842 J. Neurochem (1983)). The chymotryptic activity of the complex is measured by the increase in fluorescence following cleavage of the substrate peptide succinyl-leucine-leucine-valine-tyrosine-7-amino-4-methyl coumarin. The standard in vitro assay consists of 2 μg 20S proteasome, 0.1-100 μg/ml proteasome inhibitor in 200 μl 50 mM HEPES, containing 0.1% sodium dodecyl sulphate, pH7.5. The proteolytic reaction is initiated by the addition of 50 μM fluorogenic peptide substrate and allowed to progress for 15 minutes at 37° C. The reaction is terminated by the addition of 100 μl of 100 mM acetate buffer, pH4.0. The rate of proteolysis is directly proportional to the amount of liberated aminomethylcoumarin which is measured by fluorescent spectroscopy (EX 370 nm, EM 430 nm).
`CCCCC(NC(=O)CC1CC(=O)c2ccc(OC)cc21)C(=O)NC(CC(C)C)C(=O)NCC(N)=O` (mixture of isomers) [Compound 43] showed an IC50 greater than 10 µg/mL.
To `COc1ccc2c(c1)C(CC(=O)NC(CC(C)C)C(=O)NC(CC(C)C)C(=O)NC(C)(C)C(N)=O)CC2=O` (mixture of isomers) [Compound 170] belongs greater than 10 µg/mL; to `CCN(CC)C(=O)CC1CC(=O)c2ccc(OC)cc21` (centres unmarked) [Compound 68], greater than 10 µg/mL.
With `COc1ccc2c(c1)C(CC(=O)NC(CCC(N)=O)C(=O)NC(CC(C)C)C(N)=O)CC2=O` (mixture of isomers) [Compound 98], the half-inhibitory concentration (IC50) is greater than 10 µg/mL.
`COCCN(CCOC)C(=O)CC1CC(=O)c2ccc(OC)cc21` (racemic) [Compound 169]: the half-inhibitory concentration (IC50) was greater than 50 µg/mL.
In turn, `COc1ccc2c(c1)C(CC(=O)NCCc1ccccc1)CC2=O` (centres unmarked) [Compound 65] gave an IC50 greater than 10 µg/mL.
With `COc1ccc2c(c1)C(CC(=O)N(Cc1ccccc1)Cc1ccccc1)CC2=O` (centres unmarked) [Compound 39], the IC50 is greater than 10 µg/mL.
For `COc1ccc2c(c1)C(CC(=O)NCc1ccncc1)CC2=O` (centres unmarked) [Compound 104] the value was greater than 10 µg/mL; for `COc1ccc2c(c1)C(CC(=O)NC(CC(C)C)C(=O)NC(CC(C)C)C(=O)NC(C(N)=O)C(C)C)CC2=O` (mixture of isomers) [Compound 124], greater than 10 µg/mL.
Regarding `COc1ccc2c(c1)C(CC(=O)N1CCCC1C(=O)NC(CC(C)C)C(N)=O)CC2=O` (mixture of isomers) [Compound 31], the IC50 was 10 µg/mL.
`COc1ccc2c(c1)C(CC(=O)NC(CCCNC(=N)N)C(=O)NC(CC(C)C)C(N)=O)CC2=O` (mixture of isomers) [Compound 93] gave an IC50 greater than 10 µg/mL.
To `COc1ccc2c(c1)C(CC(=O)N1CCC(C)CC1)CC2=O` (centres unmarked) [Compound 108] belongs greater than 10 µg/mL; to `COc1ccc2c(c1)C(CC(=O)NC(CC(C)C)C(=O)N(Cc1ccccc1)Cc1ccccc1)CC2=O` (mixture of isomers) [Compound 199], greater than 10 µg/mL; to `COc1ccc2c(c1)C(CC(=O)NC(CC(C)C)C(=O)NC(CCC(=O)O)C(N)=O)CC2=O` (mixture of isomers) [Compound 133], greater than 10 µg/mL.
`COc1ccc2c(c1)C(CC(=O)NC(CC(C)C)C(=O)NC(CC1CCCCC1)C(N)=O)CC2=O` (mixture of isomers) [Compound 132] had a half-maximal inhibitory concentration (IC50) greater than 10 µg/mL.
`COc1ccc2c(c1)C(CC(=O)N(C)C)CC2=O` (racemic) [Compound 167] showed an IC50 greater than 50 µg/mL.
In the case of `COc1ccc2c(c1)C(CC(=O)NC(C(=O)NC(CC(C)C)C(=O)NCC(N)=O)c1ccccc1)CC2=O` (mixture of isomers) [Compound 48], the IC50 was greater than 10 µg/mL.
In turn, `COc1ccc2c(c1)C(CC(=O)NC(CCCCN)C(=O)NC(CC(C)C)C(N)=O)CC2=O` (mixture of isomers) [Compound 100] gave a concentration for half-maximal inhibition (IC50) greater than 10 µg/mL.
Regarding `COc1ccc2c(c1)C(CC(=O)NC(CC(C)C)C(=O)NC(C(N)=O)c1ccccc1)CC2=O` (mixture of isomers) [Compound 140], the IC50 is greater than 10 µg/mL.
Regarding `COc1ccc2c(c1)C(CC(=O)NC(CC(C)C)C(=O)NC(CC(C)C)C(=O)NCC(N)=O)CC2=O` (mixture of isomers) [Compound 21], the IC50 is 0.1 µg/mL.
Molecule `COc1ccc2c(c1)C(CC(=O)N[C@@H](CC(C)C)C(=O)N[C@H](Cc1ccccc1)C(=O)NCC(N)=O)CC2=O` (some centres unmarked) [Compound 88] returned an IC50 greater than 10 µg/mL.
`COc1ccc2c(c1)C(CC(=O)NC(CC(C)C)C(=O)NC(C)(C)C(N)=O)CC2=O` (mixture of isomers) [Compound 11] yielded an IC50 greater than 10 µg/mL.
Consider `COc1ccc2c(c1)C(CC(=O)Nc1ccccc1)CC2=O` (racemic) [Compound 168], for which the concentration for half-maximal inhibition (IC50) was greater than 50 µg/mL.
To `COc1ccc2c(c1)C(CC(=O)NC(CC(C)C)C(=O)NC(CO)C(N)=O)CC2=O` (mixture of isomers) [Compound 141] belongs greater than 10 µg/mL.
For the molecule `COc1ccc2c(c1)C(CC(=O)Nc1ccnc(S)n1)CC2=O` (racemic) [Compound 158], the IC50 was greater than 10 µg/mL.
In the case of `COc1ccc2c(c1)C(CC(=O)Nc1nc(C)cc(Cl)n1)CC2=O` (racemic) [Compound 155], the half-maximal inhibitory concentration (IC50) is greater than 10 µg/mL.
Regarding `COc1ccc2c(c1)C(CC(=O)NC(CC(C)C)C(=O)NC(CCC(N)=O)C(N)=O)CC2=O` (mixture of isomers) [Compound 137], the IC50 is greater than 10 µg/mL.
For the molecule `COc1ccc2c(c1)C(CC(=O)N(C(C)C)C(C)C)CC2=O` (centres unmarked) [Compound 62], the IC50 was greater than 10 µg/mL.
`COc1ccc2c(c1)C(CC(=O)N1CCSCC1)CC2=O` (centres unmarked) [Compound 106] registered an IC50 greater than 10 µg/mL.
Molecule `COc1ccc2c(c1)C(CC(=O)NC1CCCC1)CC2=O` (centres unmarked) [Compound 74] yielded a 50% inhibitory concentration (IC50) greater than 10 µg/mL.
Molecule `COc1ccc2c(c1)C(CC(=O)NCCCc1ccccc1)CC2=O` (centres unmarked) [Compound 120] displayed an IC50 greater than 10 µg/mL.
As to `COc1ccc2c(c1)C(CC(=O)N1CCc3ccccc31)CC2=O` (racemic) [Compound 160], the IC50 was greater than 10 µg/mL.
As for `CCCCC(NC(=O)CC1CC(=O)c2ccc(OC)cc21)C(=O)NC(CC(C)C)C(N)=O` (mixture of isomers) [Compound 16], the IC50 was greater than 10 µg/mL.
`COCCN(CCOC)C(=O)CC1CC(=O)c2ccc(OC)cc21` (centres unmarked) [Compound 79] yielded an IC50 greater than 10 µg/mL.
`CCCC[C@@H](NC(=O)[C@H](CC(C)C)NC(=O)CC1CC(=O)c2ccc(OC)cc21)C(=O)NCC(N)=O` (some centres unmarked) [Compound 86]: the IC50 is greater than 10 µg/mL.
Regarding `COc1ccc2c(c1)C(CC(=O)NC(CC(C)C)C(=O)NC(CC(C)C)C(=O)N1CCCCC1)CC2=O` (mixture of isomers) [Compound 175], the IC50 was greater than 10 µg/mL.
In the case of `COc1ccc2c(c1)C(CC(=O)NC(CC(C)C)C(=O)NC(CC(C)C)C(=O)NC(C(N)=O)C(C)C)CC2=O` (mixture of isomers) [Compound 123], the IC50 is greater than 10 µg/mL.
Consider `COc1ccc2c(c1)C(CC(=O)NC(CC(C)C)C(=O)NC(CC(C)C)C(=O)N1CCc3ccccc3C1)CC2=O` (mixture of isomers) [Compound 191], for which the concentration for half-maximal inhibition (IC50) was greater than 10 µg/mL.
`COc1ccc2c(c1)C(CC(=O)NC(CC(C)C)C(=O)NC(C(N)=O)C(C)C)CC2=O` (mixture of isomers) [Compound 33] registered an IC50 greater than 10 µg/mL.
Regarding `COc1ccc2c(c1)C(CC(=O)NC(Cc1c[nH]c3ccccc13)C(=O)NC(CC(C)C)C(N)=O)CC2=O` (mixture of isomers) [Compound 103], the concentration for half-maximal inhibition (IC50) is greater than 10 µg/mL.
The molecule `COc1ccc2c(c1)C(CC(=O)NC(C(N)=O)c1ccccc1)CC2=O` (mixture of isomers) [Compound 36] registered an IC50 greater than 10 µg/mL.
In turn, `CCCCC(NC(=O)CC1CC(=O)c2ccc(OC)cc21)C(N)=O` (mixture of isomers) [Compound 9] yielded a concentration for half-maximal inhibition (IC50) greater than 10 µg/mL.
As to `COc1ccc2c(c1)C(CC(=O)NC(C(=O)NC(C(N)=O)C(C)C)C(C)C)CC2=O` (mixture of isomers) [Compound 34], the IC50 was greater than 10 µg/mL.
As for `COc1ccc2c(c1)C(CC(=O)N1Cc3ccccc3CC1C(=O)NC(CC(C)C)C(N)=O)CC2=O` (mixture of isomers) [Compound 60], the IC50 was greater than 10 µg/mL.
The molecule `COc1ccc2c(c1)C(CC(=O)Nc1cccc(I)c1)CC2=O` (centres unmarked) [Compound 82] had an IC50 greater than 10 µg/mL.
Consider `COc1ccc2c(c1)C(CC(=O)N1C(C)CCCC1C)CC2=O` (centres unmarked) [Compound 75], for which the IC50 is greater than 10 µg/mL.
As for `COc1ccc2c(c1)C(CC(=O)NC(CC(C)C)C(=O)NC(CC(C)C)C(=O)NCC(N)=O)CC2=O` (mixture of isomers) [Compound 19], the IC50 is greater than 10 µg/mL.
`COc1ccc2c(c1)C(CC(=O)NC(CC(C)C)C(=O)NC(CC(C)C)C(=O)NC(Cc1ccccc1)C(N)=O)CC2=O` (mixture of isomers) [Compound 127]: the IC50 is greater than 10 µg/mL.
For `COc1ccc2c(c1)C(CC(=O)NC(CC(=O)O)C(=O)NC(CC(C)C)C(N)=O)CC2=O` (mixture of isomers) [Compound 94], the IC50 is greater than 10 µg/mL.
Turning to `COc1ccc2c(c1)C(CC(=O)N[C@@H](CC(C)C)C(=O)N[C@H](CC(C)C)C(=O)NCC(N)=O)CC2=O` (single isomer, unassigned) [Compound 51], the IC50 came to 0.5 µg/mL (≈ 0.995 µM).
For `COc1ccc2c(c1)C(CC(=O)N1CCC(O)(c3ccccc3)CC1)CC2=O` (centres unmarked) [Compound 151] the value was greater than 10 µg/mL.
`COc1ccc2c(c1)C(CC(=O)NC(CC(C)C)C(=O)NC(C)C(N)=O)CC2=O` (mixture of isomers) [Compound 52] returned an IC50 greater than 10 µg/mL.
`COCCCNC(=O)CC1CC(=O)c2ccc(OC)cc21` (centres unmarked) [Compound 71] displayed an IC50 greater than 10 µg/mL.
Consider `COc1ccc2c(c1)C(CC(=O)N1Cc3ccccc3CC1C(=O)NC(CC(C)C)C(N)=O)CC2=O` (mixture of isomers) [Compound 26], for which the IC50 was greater than 10 µg/mL.
The molecule `COc1ccc2c(c1)C(CC(=O)N1CCc3ccccc31)CC2=O` (centres unmarked) [Compound 77] showed an IC50 greater than 10 µg/mL.
Consider `COc1ccc2c(c1)C(CC(=O)NC(CCC(=O)O)C(=O)NC(CC(C)C)C(N)=O)CC2=O` (mixture of isomers) [Compound 97], for which the IC50 was greater than 10 µg/mL.
